From article PMC4549708, “Inhibition of neuraminidase by Ganoderma triterpenoids and implications for neuraminidase inhibitor design” (Scientific Reports, 2015)
Like-named read-outs stand apart in the source and are kept apart here.

Legend:
NA (H1N1,09) = NA (H1N1,09) (Influenza A virus, UniProt C3W5S3); assay: biochemical
NA (H5N1) [1] = target: T1, NA (H5N1) (Influenza A virus, UniProt K0C216); assay: biochemical
NA (H7N9) = format: biochemical; conditions: 200 µM
NA (H5N1) [2] = target: T1, NA (H5N1); format: biochemical, Influenza A virus A/Hubei/1/2011(H5N1)
Influenza B (B/Lee/40) = assay: microbe, parasite or virus in culture; format: cell-based
[3] = test system: MDCK cells (Madin-Darby Canine Kidney cells)
[4] = test system: H5N2 (A/Duck/Pennsylvania/84); assay: microbe, parasite or virus in culture; format: cell-based; conditions: unidentified influenza virus, H5N2, MDCK
in vitro [5] = conditions: human
in vitro [6] = conditions: dog
[7] = test system: influenza A H1N1 (A/WSN/33); conditions: cellular assay; cited from earlier work

## CC(=O)O[C@H]1C[C@H]([C@H](C)CC/C=C(\C)C(=O)O)[C@@]2(C)CC=C3C(=CC[C@H]4C(C)(C)C(=O)CC[C@]34C)[C@]12C [Compound 1, Ganoderic acid T-Q]
NA (H1N1,09); 200 μM of each compound, n = 3, means ± standard deviation
  Inhibition rate (%) NA(H1N1,09): 81.7 ± 1.7%
NA (H1N1,09); in vitro NA inhibition assay (n = 3)
  IC50: 5.6 ± 1.9 µM
NA (H5N1) [1]
  IC50: 1.2 ± 1 µM
NA (H5N1) [1]; 200 µM
  Inhibition rate (%) NA (H5N1): 94.4 ± 0.4%
NA (H7N9)
  Inhibition rate (%) NA(H7N9): 27.4 ± 1.2%
NA (H5N1) [2]
  Kiu (ESI dissociation constant): 17.39
  higher affinity to free NA than to the NA-substrate complex: 2.5 fold
  mode of inhibition: mixed inhibition mode
Influenza B (B/Lee/40); read-out: IC50
  IC50: 190 µM
MCF7 cells
  CC50: 28.2 ± 0.8 µM
[3]
  CC50: 41.1 µM

## C/C(=C\CC[C@@H](C)[C@H]1C[C@H](O)[C@@]2(C)C3=CC[C@H]4C(C)(C)C(=O)CC[C@]4(C)C3=CC[C@]12C)C(=O)O [Compound 2, Ganoderic acid TR]
NA (H5N1) [1]; read-out: Inhibition rate (%) NA (H5N1)
  inhibition at 200 µM: 96.5 ± 0.3%
NA (H7N9)
  Inhibition rate (%) NA(H7N9): 24.0 ± 1.8%
[4]
  IC50: 324 µM
Influenza B (B/Lee/40); Influenza B virus, MDCK
  IC50: 166 µM
In vitro [5]
  CC50: 91.6 ± 3.4 µM
In vitro [6]
  CC50: 299 µM

## CC(CC(=O)C[C@@](C)(O)C1=C[C@H](O)[C@]2(C)[C@]1(C)C(=O)C=C1[C@@]3(C)CCC(=O)C(C)(C)[C@@H]3C[C@H]3O[C@@]132)C(=O)O (some centres unmarked) [applanoxidic acid G]
[7]
  IC50: 190 µM

## CC(=CCC[C@@H](C)[C@H]1CC[C@@]2(C)C3=CC[C@H]4C(C)(C)[C@@H](O)CC[C@]4(C)C3=CC[C@]12C)CO [ganodermadiol]
[7]
  IC50: > 220 µM

## C/C(=C\CC[C@@H](C)[C@H]1CC[C@@]2(C)C3=C(CC[C@]12C)[C@@]1(C)CC[C@H](O)C(C)(C)[C@@H]1CC3=O)CO [lucidadiol]
[7]
  IC50: 220 µM
